In ChEMBL document CHEMBL3774391, “Novel nicotine analogues with potential anti-mycobacterial activity” (Bioorg Med Chem, 2016):
≈ marks a conversion by molar mass, not a printed value. Calls of active or inactive are those of the source. The rule behind the calls is not given here.

What was measured:
[1] = system: Mycobacterium tuberculosis; assay: Antimycobacterial activity against Mycobacterium tuberculosis H37Rv […] assessed as bacterial colonies at 50 ug/ml after 28 days by Lowenstein-Jensen method; type: functional
[2] = system: Mycobacterium tuberculosis; assay: Antimycobacterial activity against Mycobacterium tuberculosis H37Rv […] assessed as bacterial colonies at 200 ug/ml after 28 days by Lowenstein-Jensen method; type: functional
[3] = target: Neuronal acetylcholine receptor; alpha4/beta2 (Homo sapiens) (UniProt P17787+P43681); assay: Displacement of [3H]cytisine from human recombinant alpha4beta2 nACh receptor expressed in human SH-SY5Y cells at 1 X 10^-8 M to 1 X 10^-7 M; type: cell-based
[4] = system: Mycobacterium tuberculosis; assay: Antimycobacterial activity against Mycobacterium tuberculosis clinical isolate assessed as growth inhibition after 28 days; type: functional, organism-based
[5] = system: Mycobacterium tuberculosis; assay: Antimycobacterial activity against Mycobacterium tuberculosis H37Rv […] assessed as confluent growth at 50 ug/ml after 28 days by Lowenstein-Jensen method; type: functional, organism-based
[6] = system: Mycobacterium tuberculosis; assay: Antimycobacterial activity against Mycobacterium tuberculosis H37Rv […] assessed as growth inhibition at 40 ug/ml after 28 days by Lowenstein-Jensen method; type: functional, organism-based
[7] = system: Mycobacterium tuberculosis; assay: Antimycobacterial activity against Mycobacterium tuberculosis H37Rv […] assessed as confluent growth at 200 ug/ml after 28 days by Lowenstein-Jensen method; type: functional, organism-based
[8] = system: Mycobacterium tuberculosis; assay: Antimycobacterial activity against Mycobacterium tuberculosis clinical isolate assessed as growth inhibition after 5 days by microplate Alamar blue assay; type: functional; conditions: 120 h
[9] = Half life in po dosed Wistar rat plasma
[10] = Cmax in Wistar rat at 5 mg/kg, po; type: ADME, organism-based; design: dose 5 mg/kg, route oral; conditions: in vivo
[11] = Tmax in Wistar rat at 5 mg/kg, po; type: ADME, organism-based; conditions: in vivo
[12] = Half life in Wistar rat at 5 mg/kg, po; type: ADME, organism-based; conditions: in vivo
Rattus norvegicus = assay: Volume of distribution in Wistar rat at 5 mg/kg, po; type: ADME, organism-based; conditions: in vivo
[13] = Cmax in Wistar rat at 5 mg/kg, iv; type: ADME, organism-based; design: dose 5 mg/kg, route intravenous; conditions: in vivo
[14] = Tmax in Wistar rat at 5 mg/kg, iv; type: ADME, organism-based; conditions: in vivo
[15] = Half life in Wistar rat at 5 mg/kg, iv; type: ADME, organism-based; conditions: in vivo
[16] = Volume of distribution in Wistar rat at 5 mg/kg, iv; type: ADME, organism-based; conditions: in vivo
[17] = Acute toxicity in po dosed overnight fasted Wistar rat; type: organism-based; conditions: in vivo
[18] = Toxicity in Wistar rat administered qd via oral gavage with repeated dose for 28 days; type: organism-based; conditions: in vivo
[19] = system: Mycobacterium tuberculosis; assay: Antimycobacterial activity against Mycobacterium tuberculosis H37Rv […] assessed as growth inhibition at 0.2 ug/ml after 28 days by Lowenstein-Jensen method; type: functional, organism-based

SMILES	Activity [2]	inhibition [3]	Activity [4]	growth inhibition (GI) [5]	growth inhibition (GI) [7]	further results
Cc1cccc(-c2cncc(C(=O)C3CCN(C)C3=O)c2)c1 (stereo not given)	>100	< 10%	inactive			Activity [1]: >100
CC(=O)c1cccc(-c2cncc(C(=O)C3CCN(C)C3=O)c2)c1 (stereo not given)	>100		inactive	inactive		
CO[C@H]1/C=C/O[C@@]2(C)Oc3c(C)c(O)c4c(O)c(c(/C=N/N5CCN(C)CC5)c(O)c4c3C2=O)NC(=O)/C(C)=C\C=C\[C@H](C)[C@H](O)[C@@H](C)[C@@H](O)[C@@H](C)[C@H](OC(C)=O)[C@@H]1C						growth inhibition (GI) [6]: Active
Cc1ccc(-c2cncc(C(=O)C3CCN(C)C3=O)c2)cc1 (stereo not given)			inactive	inactive	inactive	
CN1CCC(C(=O)c2cncc(-c3cccc(Cl)c3Cl)c2)C1=O (stereo not given)						MIC [8]: 0.0093 µM (≈ 3.25 ng/mL)
CN1CCC(C(=O)c2cncc(-c3ccc(F)cc3)c2)C1=O (stereo not given)		inactive	inactive	inactive	inactive	
COc1ccccc1-c1cncc(C(=O)C2CCN(C)C2=O)c1 (stereo not given)			inactive	inactive	inactive	
COc1ccc(-c2cncc(C(=O)C3CCN(C)C3=O)c2)cc1 (stereo not given)	>100	inactive	inactive	inactive		
CN1CCC(C(=O)c2cncc(C3CC3)c2)C1=O (stereo not given)		inactive	inactive	inactive	inactive	
CN1CCC[C@H]1c1cccnc1 [NICOTINE]						half-life [9]: 2 h
Cc1ccccc1-c1cncc(C(=O)C2CCN(C)C2=O)c1 (stereo not given)			inactive	inactive	inactive	
CN1CCC(C(=O)c2cncc(-c3cc(Cl)cc(Cl)c3)c2)C1=O (stereo not given)	>100	inactive	inactive			Activity [1]: >100; MIC [8]: 0.0286 µM (≈ 10 ng/mL); Cmax [10]: 2860 ng/mL; Tmax [11]: 1 h; half-life [12]: > 24 h; Vd (Rattus norvegicus): 27.36 L; Cmax [13]: 3370 ng/mL; Tmax [14]: 3 min; half-life [15]: 24 h; Vd [16]: 23.2 L; LD50 [17]: > 2000 mg/kg; LD50 at 672 h [18]: > 2000 mg/kg
CCCCc1cncc(C(=O)C2CCN(C)C2=O)c1 (stereo not given)		inactive	inactive	inactive	inactive	
CN1CCC(C(=O)c2cncc(-c3ccc4ccccc4c3)c2)C1=O (stereo not given)	>100		inactive	inactive		
CN1CCC(C(=O)c2cncc(-c3ccc(C=O)cc3)c2)C1=O (stereo not given)	>100		inactive	inactive		
CN1CCC(C(=O)c2cncc(-c3cccc([N+](=O)[O-])c3)c2)C1=O (stereo not given)	>100	inactive	inactive	inactive		

SMILES	Activity [2]	inhibition [3]	Activity [4]	growth inhibition (GI) [5]	growth inhibition (GI) [7]	further results
CN1CCC(C(=O)c2cncc(-c3cccc(C=O)c3)c2)C1=O (stereo not given)	>100	inactive	inactive	inactive	inactive	
CC(=O)c1ccc(-c2cncc(C(=O)C3CCN(C)C3=O)c2)s1 (stereo not given)		inactive	inactive	inactive	inactive	
CC(=O)Oc1ccc(-c2cncc(C(=O)C3CCN(C)C3=O)c2)cc1 (stereo not given)	>100	inactive	inactive			Activity [1]: >100
NNC(=O)c1ccncc1 [ISONIAZID]						MIC [8]: 0.00145 µM (≈ 0.199 ng/mL); growth inhibition (GI) [19]: Active
CN1CCC(C(=O)c2cncc(-c3ccc(Cl)cc3)c2)C1=O (stereo not given)			inactive	inactive	inactive	
CN1CCC(C(=O)c2cncc(-c3cccc(N)c3)c2)C1=O (stereo not given)			inactive	inactive	inactive	
CN1CCC(C(=O)c2cncc(-c3cccc4ccccc34)c2)C1=O (stereo not given)			inactive	inactive	inactive	
COc1cccc(-c2cncc(C(=O)C3CCN(C)C3=O)c2)c1 (stereo not given)		inactive	inactive	inactive	inactive	
CN1CCC(C(=O)c2cncc(-c3cccc(O)c3)c2)C1=O (stereo not given)		inactive	inactive	inactive	inactive	
CN1CCC(C(=O)c2cncc(-c3ccc(Cl)c(Cl)c3)c2)C1=O (stereo not given)						MIC [8]: 0.179 µM (≈ 62.5 ng/mL)
CN1CCC(C(=O)c2cncc(-c3cccc(F)c3)c2)C1=O (stereo not given)			inactive	inactive	inactive	
CN1CCC(C(=O)c2cncc(-c3ccccc3Cl)c2)C1=O (stereo not given)	>100		inactive	inactive		
CN1CCC(C(=O)c2cncc(-c3cc(Cl)ccc3Cl)c2)C1=O (stereo not given)						MIC [8]: 0.286 µM (≈ 100 ng/mL)
CN1CCC(C(=O)c2cncc(-c3ccc(Cl)cc3Cl)c2)C1=O (stereo not given)						MIC [8]: 0.00286 µM (≈ 0.999 ng/mL)
CN1CCC(C(=O)c2cncc(-c3ccccc3)c2)C1=O (stereo not given)		< 10%	inactive	inactive	inactive	
